According to patent publication US9657071B2, “IgE peptide vaccine” (NIPPON ZENYAKU KOGYO CO., LTD., priority 2012, dated 2017):

Legend:
Type in all cases: in vivo
mouse IgE = assay: Reactivity of serum of peptide-immunized rabbit with mouse IgE (ELISA); details: 500 μg peptide + complete adjuvant s.c.
Method: (§1) 2 mL of the 250 μg/mL peptide (a total of 500 μg) used in Example 2 was mixed with an equal amount of a complete adjuvant (a total of 4 mL). Each rabbit was immunized with this mixture by the subcutaneous administration (amount of the peptide: 500 μg) at day 0 and weeks 2, 4, 6, and 8. Blood was collected 5 weeks after the week-8 administration (week 13 counted from day 0). Booster immunization was performed at week 14 counted from day 0, and blood was further collected 2 weeks thereafter (week 16 counted from day 0). Antibody titers in the collected blood were measured by ELISA. The serum of a rabbit that received no peptide was used as a control.
(§2) ELISA was performed by the following method: each […] recombinant CH3 solution of dog IgE, human IgE, mouse IgE, dog IgG, and cat IgE was immobilized at a concentration of 100 μL/well (100 ng/well) to a plate. The serum collected from the immunized rabbit was used (×200 to ×102400) as a primary antibody. An enzyme-labeled anti-rabbit IgG antibody (Zymed Laboratories Inc.) was used as a secondary antibody.

dog IgE = assay: Reactivity of serum of peptide-immunized rabbit with dog IgE (ELISA); details: 500 μg peptide + complete adjuvant s.c.
Method: as §1, §2

Der f 2-specific IgE = Der f 2-specific IgE in serum of vaccinated, Der f 2-sensitized dogs; details: dog
Method: (§3) The peptide used was MOUSE CH3-4-17-11 (mouse CH3 region amino acid sequence) (SEQ ID NO: 27). 2 mL (500 μg) of a solution of the peptide (concentration: 250 μg/mL) and 2 mL of a complete adjuvant (DIFCO ADJUVANT COMPLETE FREUND, Becton, Dickinson and Company Japan) were dispensed to microtubes. Liquids (4 mL per animal) emulsified by shaking for 15 minutes in a high-speed shaker were used as IgE peptide vaccines.
(§4) The animals used were 1 male and 7 females of 5- to 7-month-old beagles and were divided into an administration group (n=4; 08-33, 08-42, 08-43, and 08-44) and a non-administration group (n=4; 08-45, 08-46, 08-47, and 08-48).
(§5) The peptide was administered at days 0 (test start date), 14, and 28 in the first course and further at days 106 and 117 in the second course. The test substance was subcutaneously administered to the necks of the 4 animals in the administration group. The non-administration group was untreated.
Four weeks after the completion of the peptide administration of the first course (days 56 and 70 into the test), all of the animals were artificially sensitized. A mixed liquid (4.0 mL per animal) of 300 μg of Der f 2 (Lot No. 3, 1465 μg/mL, prepared by a drug research team) and 50 mg of an alum adjuvant (SIGMA® Aluminium hydrate IgE1, 13 mg/mL) was used as a sensitizing solution and administered intraperitoneally for the first shot and subcutaneously to the necks for the second shot.
Four weeks after the completion of the peptide administration of the second course (day 145 into the test), the artificial sensitization was boosted. A 1-mL solution prepared from Der f 2 (Lot No. 3: 0.205 mL of 1465 μg/mL: 300 μg) with saline was subcutaneously administered to the necks of all of the animals.
(§6) At days 0, 14, 28, 42, 56, 70, 77, 84, 98, 106, 117, 131, 145, and 152 (4 time points (0, 14, 28, and 42) were excluded for the non-administration group), blood was collected from the jugular vein of each individual using a syringe. After separation of serum, the serum was used to measure peptide-specific IgG concentrations and IgE-specific IgG concentrations in the serum.
Serum obtained at days 70, 77, 106, 117, 131, 145, and 152 were used in the measurement of Der f 2-specific IgE concentrations in the serum, which was consigned to AAC Laboratories Inc.

dog IgG = assay: Reactivity of serum of peptide-immunized rabbit with dog IgG (ELISA); details: 500 μg peptide + complete adjuvant s.c.
Method: as §1, §2

peptide-specific IgG = assay: Peptide-specific IgG in serum of dogs given IgE peptide vaccine (ELISA); details: dog
Method: as §3, §4, §5, §6
Each antigenic protein (MOUSE CH3-4-17-11 for peptide-specific IgG assay, and human IgE for IgE-specific IgG assay) was prepared at 1 μg/mL in an immobilization buffer (0.05 M carbonate buffer, pH 9.6), then added at a concentration of 100 μL/well to an ELISA plate, and left overnight at 4° C. The immobilization plate was washed once with PBS-T (0.05%). A blocking solution (4× Block Ace, Snow Brand Milk Products Co., Ltd.; UK-B80) was added thereto at a concentration of 200 μL/well. The plate was blocked by incubation at 37° C. for 1.5 hours. The serum was diluted 5000-fold with a diluent (PBS-T:Block Ace=9:1) and used. […] Then, the measurement was performed using a plate reader (Bio-Rad Laboratories, Inc.; model 680) (dual: measurement: 450 nm, control: 570 nm).

human IgE = assay: IgE-specific IgG in serum of dogs given IgE peptide vaccine (ELISA, human IgE immobilized); details: dog
Method: as §3, §4
The peptide was administered at days 0 (test start date), 14, and 28 in the first course and further at days 106 and 117 in the second course. The test substance was subcutaneously administered to the necks of the 4 animals in the administration group. The non-administration group was untreated. […]
Each antigenic protein (MOUSE CH3-4-17-11 for peptide-specific IgG assay, and human IgE for IgE-specific IgG assay) was prepared at 1 μg/mL in an immobilization buffer (0.05 M carbonate buffer, pH 9.6), then added at a concentration of 100 μL/well to an ELISA plate, and left overnight at 4° C. […] Then, the measurement was performed using a plate reader (Bio-Rad Laboratories, Inc.; model 680) (dual: measurement: 450 nm, control: 570 nm). […]

Chain of dog IgE (as listed by the source): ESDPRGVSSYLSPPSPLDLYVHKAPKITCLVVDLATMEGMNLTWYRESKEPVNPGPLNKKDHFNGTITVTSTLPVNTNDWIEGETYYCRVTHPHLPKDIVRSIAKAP

“QEKKTSVSASQWYTKHHNNATTSIT (listed as Mus musculus) [MOUSE CH3-4-17-11]” was tested, and the “response of immobilized mouse IgE to peptide-administered rabbit serum” value (mouse IgE) was “responded”, the “response of immobilized dog IgE to peptide-administered rabbit serum” value (dog IgE) was “responded” and the “Der f 2-specific IgE in serum, administration group versus non-administration group” value (Der f 2-specific IgE; all of the time points) was “no significant difference”. For the same sequence, the “Der f 2-specific IgE concentrations in serum, administration group” value (Der f 2-specific IgE; day 70 (2 weeks after the first sensitization)) was 1528.8 ± 1823.6 ng/mL, the “average of Der f 2-specific IgE concentrations in the serum of the administration group” value (Der f 2-specific IgE; day 77, 3 animals, excluding 08-43) was 1352.3 ng/mL and the “Der f 2-specific IgE concentrations in serum, administration group” value (Der f 2-specific IgE; day 106 (peak)) was 3091.8 ± 1542.6 ng/mL. For the same sequence, the “Der f 2-specific IgE concentrations in serum, administration group” value (Der f 2-specific IgE; day 152 (7 days after the boosting)) was 3972.5 ± 1216.5 ng/mL, the “production of IgE after subsequent sensitization” value (Der f 2-specific IgE; summary of FIG. 6) was “inhibited the production of IgE” and the “response of immobilized dog IgG to peptide-administered rabbit serum” value (dog IgG) was “responded to neither”. The “peptide-specific IgG concentrations in serum (O.D. values), one animal (08-44)” value (peptide-specific IgG; s.c., day 117 or later (second course)) was no less than 1.0 O.D, the “peptide-specific IgG in serum, administration group versus non-administration group” value (peptide-specific IgG; day 77, p<0.05) was “significantly higher” and the “level of IgG antibody against the peptide” value (peptide-specific IgG; summary of FIG. 6) was “increased”. The “IgE-specific IgG in serum, administration group versus non-administration group” value (human IgE; day 77, p<0.05) was “significantly higher” and the “level of IgG antibody against IgE” value (human IgE; summary of FIG. 6) was “increased”.
